PMC9030254, “Target Hopping from Protein Kinases to PXR: Identification of Small-Molecule Protein Kinase Inhibitors as Selective Modulators of Pregnane X Receptor from TüKIC Library” (Cells, 2022)

Experiments:
Assay in all cases: Kinase profiling
Format in all cases: biochemical
ULK2 = target: T1, ULK2 (Homo sapiens, UniProt Q8IYT8)
T1 construct: purchased ProQinase (Freiburg, Germany)
T1 sequence (Q8IYT8 1-1036): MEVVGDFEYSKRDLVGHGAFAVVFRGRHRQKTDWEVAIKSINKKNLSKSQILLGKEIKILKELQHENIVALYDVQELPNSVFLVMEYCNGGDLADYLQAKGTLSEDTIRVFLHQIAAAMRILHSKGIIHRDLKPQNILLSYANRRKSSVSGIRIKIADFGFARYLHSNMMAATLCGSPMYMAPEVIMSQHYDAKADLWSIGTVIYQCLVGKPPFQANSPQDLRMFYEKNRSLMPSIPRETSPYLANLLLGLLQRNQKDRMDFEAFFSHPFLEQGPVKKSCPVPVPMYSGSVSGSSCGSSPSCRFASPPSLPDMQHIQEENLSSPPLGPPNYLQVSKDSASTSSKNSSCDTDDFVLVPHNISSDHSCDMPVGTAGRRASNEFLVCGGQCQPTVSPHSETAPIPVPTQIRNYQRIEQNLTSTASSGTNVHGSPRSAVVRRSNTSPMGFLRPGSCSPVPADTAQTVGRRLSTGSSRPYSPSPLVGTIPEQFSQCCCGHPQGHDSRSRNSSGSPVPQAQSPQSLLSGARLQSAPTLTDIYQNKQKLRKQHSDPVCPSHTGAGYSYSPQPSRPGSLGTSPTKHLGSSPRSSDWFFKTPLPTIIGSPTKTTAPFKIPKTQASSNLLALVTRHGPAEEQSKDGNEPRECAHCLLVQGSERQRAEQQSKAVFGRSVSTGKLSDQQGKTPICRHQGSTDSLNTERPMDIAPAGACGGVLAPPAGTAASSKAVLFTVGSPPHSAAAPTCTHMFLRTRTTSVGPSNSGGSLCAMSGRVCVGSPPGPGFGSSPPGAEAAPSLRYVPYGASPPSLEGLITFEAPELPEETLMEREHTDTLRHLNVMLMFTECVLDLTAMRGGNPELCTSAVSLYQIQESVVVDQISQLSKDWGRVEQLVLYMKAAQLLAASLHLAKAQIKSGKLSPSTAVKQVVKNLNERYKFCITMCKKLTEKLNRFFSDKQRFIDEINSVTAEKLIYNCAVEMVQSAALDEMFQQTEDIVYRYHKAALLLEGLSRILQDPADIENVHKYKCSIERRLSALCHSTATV
Description: (§1) The analysis was performed by ProQinase (Freiburg, Germany).

PKCbeta2 = target: T2, PKCbeta2 (Homo sapiens, UniProt P05771)
T2 construct: purchased ProQinase (Freiburg, Germany)
Description: as §1

SYK = target: T3, SYK (Homo sapiens, UniProt P43405)
T3 construct: purchased ProQinase (Freiburg, Germany)
Description: as §1

LRRK2 = target: T4, LRRK2 (Homo sapiens, UniProt Q5S007)
T4 construct: purchased ProQinase (Freiburg, Germany)
Description: as §1

TGFBR1 = target: T5, TGFBR1 (Homo sapiens, UniProt P36897)
T5 construct: purchased ProQinase (Freiburg, Germany)
T5 sequence (P36897 34-503): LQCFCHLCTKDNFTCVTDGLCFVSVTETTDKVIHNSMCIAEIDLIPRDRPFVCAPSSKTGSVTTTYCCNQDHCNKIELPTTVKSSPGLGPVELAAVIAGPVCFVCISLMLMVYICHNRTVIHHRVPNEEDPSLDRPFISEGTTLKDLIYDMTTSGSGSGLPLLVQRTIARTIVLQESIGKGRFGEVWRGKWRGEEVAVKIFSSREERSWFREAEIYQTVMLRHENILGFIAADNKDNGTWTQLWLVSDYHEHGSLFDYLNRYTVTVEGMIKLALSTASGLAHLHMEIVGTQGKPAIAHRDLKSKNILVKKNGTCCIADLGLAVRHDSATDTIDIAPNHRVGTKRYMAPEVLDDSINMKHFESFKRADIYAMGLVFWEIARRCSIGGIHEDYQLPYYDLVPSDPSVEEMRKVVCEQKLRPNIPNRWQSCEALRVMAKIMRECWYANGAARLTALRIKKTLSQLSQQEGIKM
Description: as §1

TTBK2 = target: T6, TTBK2 (Homo sapiens, UniProt Q6IQ55)
T6 construct: purchased ProQinase (Freiburg, Germany)
Description: as §1

WEE1 = target: T7, WEE1 (Homo sapiens, UniProt P30291)
T7 construct: purchased ProQinase (Freiburg, Germany)
Description: as §1

p38alpha = target: T8, p38alpha (Homo sapiens, UniProt Q16539)
T8 construct: purchased ProQinase (Freiburg, Germany)
Description: as §1

DYRK3 = target: T9, DYRK3 (Homo sapiens, UniProt O43781)
T9 construct: purchased ProQinase (Freiburg, Germany)
T9 sequence (O43781 1-588): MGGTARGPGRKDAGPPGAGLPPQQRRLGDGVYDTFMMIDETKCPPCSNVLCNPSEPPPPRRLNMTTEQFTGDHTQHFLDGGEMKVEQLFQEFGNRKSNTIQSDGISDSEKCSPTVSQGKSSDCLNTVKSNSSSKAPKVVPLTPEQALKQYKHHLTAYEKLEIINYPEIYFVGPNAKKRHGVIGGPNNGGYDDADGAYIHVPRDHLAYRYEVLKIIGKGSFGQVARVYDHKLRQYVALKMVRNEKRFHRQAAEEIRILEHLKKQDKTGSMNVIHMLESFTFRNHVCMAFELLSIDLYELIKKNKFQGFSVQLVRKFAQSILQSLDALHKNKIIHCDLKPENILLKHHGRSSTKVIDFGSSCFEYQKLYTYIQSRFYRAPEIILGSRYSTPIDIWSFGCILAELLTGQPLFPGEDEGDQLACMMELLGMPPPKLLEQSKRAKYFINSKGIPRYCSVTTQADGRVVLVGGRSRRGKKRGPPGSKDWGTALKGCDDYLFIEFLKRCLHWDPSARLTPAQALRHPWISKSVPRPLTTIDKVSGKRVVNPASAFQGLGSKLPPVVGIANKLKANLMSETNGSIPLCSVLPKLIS
Description: as §1

KIT = target: T10, KIT (Homo sapiens, UniProt P10721)
T10 construct: purchased ProQinase (Freiburg, Germany)
Description: as §1

T6 sequence (Q6IQ55 whole entry): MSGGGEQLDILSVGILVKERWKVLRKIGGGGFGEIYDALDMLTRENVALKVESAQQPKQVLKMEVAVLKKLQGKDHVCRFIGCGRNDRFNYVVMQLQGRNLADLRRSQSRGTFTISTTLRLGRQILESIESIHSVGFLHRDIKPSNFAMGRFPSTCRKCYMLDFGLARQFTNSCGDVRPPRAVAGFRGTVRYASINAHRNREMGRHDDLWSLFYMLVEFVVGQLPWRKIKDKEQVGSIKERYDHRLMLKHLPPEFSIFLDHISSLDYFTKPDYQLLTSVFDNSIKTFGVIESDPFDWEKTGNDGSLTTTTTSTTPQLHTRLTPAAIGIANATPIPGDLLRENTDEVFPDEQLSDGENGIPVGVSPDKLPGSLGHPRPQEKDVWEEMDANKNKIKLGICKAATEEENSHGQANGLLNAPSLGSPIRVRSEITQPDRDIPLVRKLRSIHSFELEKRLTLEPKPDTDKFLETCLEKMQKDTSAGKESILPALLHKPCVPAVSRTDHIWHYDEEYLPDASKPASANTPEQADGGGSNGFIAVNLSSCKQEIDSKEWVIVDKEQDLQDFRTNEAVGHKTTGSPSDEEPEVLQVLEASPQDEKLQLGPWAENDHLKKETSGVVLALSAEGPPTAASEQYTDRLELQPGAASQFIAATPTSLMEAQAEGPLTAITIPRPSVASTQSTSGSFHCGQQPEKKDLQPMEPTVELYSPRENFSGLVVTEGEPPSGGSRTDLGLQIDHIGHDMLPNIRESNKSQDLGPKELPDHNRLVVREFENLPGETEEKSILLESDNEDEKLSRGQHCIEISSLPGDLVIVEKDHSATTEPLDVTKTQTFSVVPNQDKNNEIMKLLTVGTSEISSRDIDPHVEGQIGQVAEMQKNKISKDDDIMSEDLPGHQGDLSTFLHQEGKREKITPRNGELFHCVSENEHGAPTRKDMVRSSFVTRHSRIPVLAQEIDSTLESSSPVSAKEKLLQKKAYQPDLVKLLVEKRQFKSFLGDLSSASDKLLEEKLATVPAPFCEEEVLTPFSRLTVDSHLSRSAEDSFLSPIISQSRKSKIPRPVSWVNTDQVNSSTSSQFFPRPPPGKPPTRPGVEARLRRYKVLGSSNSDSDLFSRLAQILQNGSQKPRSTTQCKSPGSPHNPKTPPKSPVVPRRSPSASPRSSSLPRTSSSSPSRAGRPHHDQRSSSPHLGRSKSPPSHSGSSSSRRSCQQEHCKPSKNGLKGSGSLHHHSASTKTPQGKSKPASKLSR
T7 sequence (P30291 whole entry): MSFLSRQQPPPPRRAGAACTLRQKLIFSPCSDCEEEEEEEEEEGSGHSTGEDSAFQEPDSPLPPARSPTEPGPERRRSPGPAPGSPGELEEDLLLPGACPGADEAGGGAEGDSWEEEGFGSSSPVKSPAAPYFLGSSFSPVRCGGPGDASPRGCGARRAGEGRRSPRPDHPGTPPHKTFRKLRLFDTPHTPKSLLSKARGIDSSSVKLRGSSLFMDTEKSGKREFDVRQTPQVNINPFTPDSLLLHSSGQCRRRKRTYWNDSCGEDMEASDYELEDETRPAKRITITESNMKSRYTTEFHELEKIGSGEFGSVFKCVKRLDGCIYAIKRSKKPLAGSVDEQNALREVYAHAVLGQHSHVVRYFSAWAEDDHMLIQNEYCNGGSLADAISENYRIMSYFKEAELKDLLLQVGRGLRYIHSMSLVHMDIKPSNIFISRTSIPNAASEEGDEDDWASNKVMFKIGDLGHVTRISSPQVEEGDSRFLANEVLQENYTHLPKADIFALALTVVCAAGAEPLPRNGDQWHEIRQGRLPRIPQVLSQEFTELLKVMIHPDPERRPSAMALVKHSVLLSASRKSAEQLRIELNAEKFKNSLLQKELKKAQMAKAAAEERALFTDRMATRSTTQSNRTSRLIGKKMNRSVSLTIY
T10 sequence (P10721 26-976): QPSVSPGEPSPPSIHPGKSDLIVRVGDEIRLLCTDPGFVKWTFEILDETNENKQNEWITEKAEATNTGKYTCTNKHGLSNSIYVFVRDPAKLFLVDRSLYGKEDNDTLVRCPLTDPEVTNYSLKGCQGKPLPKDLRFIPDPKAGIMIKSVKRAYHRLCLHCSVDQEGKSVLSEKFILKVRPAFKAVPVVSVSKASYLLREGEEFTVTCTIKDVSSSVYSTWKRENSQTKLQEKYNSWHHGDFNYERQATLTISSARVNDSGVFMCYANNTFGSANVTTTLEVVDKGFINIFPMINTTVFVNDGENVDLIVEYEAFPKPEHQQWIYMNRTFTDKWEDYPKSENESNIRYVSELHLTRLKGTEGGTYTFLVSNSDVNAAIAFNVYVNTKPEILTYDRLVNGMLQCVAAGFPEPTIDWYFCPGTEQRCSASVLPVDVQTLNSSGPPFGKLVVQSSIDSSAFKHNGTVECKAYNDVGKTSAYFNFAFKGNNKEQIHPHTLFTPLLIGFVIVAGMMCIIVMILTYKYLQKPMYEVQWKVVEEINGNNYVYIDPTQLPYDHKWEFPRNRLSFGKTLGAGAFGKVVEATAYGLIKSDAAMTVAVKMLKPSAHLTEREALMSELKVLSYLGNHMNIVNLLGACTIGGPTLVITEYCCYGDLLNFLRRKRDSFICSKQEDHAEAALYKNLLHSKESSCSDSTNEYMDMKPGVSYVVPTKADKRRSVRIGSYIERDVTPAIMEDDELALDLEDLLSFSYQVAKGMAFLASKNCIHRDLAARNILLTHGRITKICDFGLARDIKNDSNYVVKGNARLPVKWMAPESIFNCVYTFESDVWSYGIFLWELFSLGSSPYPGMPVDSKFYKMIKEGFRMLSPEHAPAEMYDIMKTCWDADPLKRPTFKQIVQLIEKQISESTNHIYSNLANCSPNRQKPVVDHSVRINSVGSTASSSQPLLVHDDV
T2 sequence (P05771 1-673 isoform P05771-2): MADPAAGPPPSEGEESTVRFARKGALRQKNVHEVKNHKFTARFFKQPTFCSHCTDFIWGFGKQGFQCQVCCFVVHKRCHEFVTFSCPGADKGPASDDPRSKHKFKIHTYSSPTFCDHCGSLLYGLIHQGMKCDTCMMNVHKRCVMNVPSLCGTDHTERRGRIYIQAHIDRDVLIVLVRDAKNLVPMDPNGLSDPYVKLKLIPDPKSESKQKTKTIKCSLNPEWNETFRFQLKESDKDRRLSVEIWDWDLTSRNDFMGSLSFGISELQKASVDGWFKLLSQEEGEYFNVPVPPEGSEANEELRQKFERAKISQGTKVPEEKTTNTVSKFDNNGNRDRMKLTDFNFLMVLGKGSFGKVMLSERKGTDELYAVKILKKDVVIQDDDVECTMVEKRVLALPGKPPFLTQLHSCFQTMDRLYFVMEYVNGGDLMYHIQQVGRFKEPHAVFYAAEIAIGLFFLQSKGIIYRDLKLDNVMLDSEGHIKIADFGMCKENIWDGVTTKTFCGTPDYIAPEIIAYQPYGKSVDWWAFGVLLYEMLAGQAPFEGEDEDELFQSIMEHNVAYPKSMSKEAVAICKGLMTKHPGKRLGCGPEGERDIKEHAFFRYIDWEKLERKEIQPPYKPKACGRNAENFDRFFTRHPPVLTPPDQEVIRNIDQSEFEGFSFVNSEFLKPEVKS
T8 sequence (Q16539 whole entry): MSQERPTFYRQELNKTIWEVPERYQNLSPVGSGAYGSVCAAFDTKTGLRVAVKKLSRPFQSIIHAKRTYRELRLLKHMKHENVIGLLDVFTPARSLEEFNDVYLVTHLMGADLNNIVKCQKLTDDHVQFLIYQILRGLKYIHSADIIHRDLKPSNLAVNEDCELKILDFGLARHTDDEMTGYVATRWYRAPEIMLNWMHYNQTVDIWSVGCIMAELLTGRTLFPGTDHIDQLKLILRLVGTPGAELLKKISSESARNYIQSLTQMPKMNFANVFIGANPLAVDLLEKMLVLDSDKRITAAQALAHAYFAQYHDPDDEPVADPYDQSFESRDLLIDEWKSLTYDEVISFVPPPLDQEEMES

SMILES	Residual activity (ULK2; 1.0E-05 M)	Residual activity (ULK2; 1.0E-06 M)	Residual activity (PKCbeta2; 1.0E-05 M)	Residual activity (PKCbeta2; 1.0E-06 M)	Residual activity (SYK; 1.0E-05 M)	Residual activity (SYK; 1.0E-06 M)	Residual activity (LRRK2; 1.0E-05 M)	Residual activity (LRRK2; 1.0E-06 M)	Residual activity (TGFBR1; 1.0E-05 M)	Residual activity (TGFBR1; 1.0E-06 M)	Residual activity (TTBK2; 1.0E-05 M)	Residual activity (TTBK2; 1.0E-06 M)	Residual activity (WEE1; 1.0E-05 M)	Residual activity (WEE1; 1.0E-06 M)	Residual activity (p38alpha; 1.0E-05 M)	Residual activity (p38alpha; 1.0E-06 M)	Residual activity (DYRK3; 1.0E-05 M)	Residual activity (DYRK3; 1.0E-06 M)	Residual activity (KIT; 1.0E-05 M)	Residual activity (KIT; 1.0E-06 M)	further results
O=C(Cc1ccccc1)Nc1ccc(F)c(Nc2ccc3c(c2)CCCCC3=O)c1 [Compound 100]	103 % of control	113 % of control	84 % of control	105 % of control	89 % of control	105 % of control	92 % of control	89 % of control	88 % of control	95 % of control	126 % of control	109 % of control	100 % of control	103 % of control	73 % of control	78 % of control	104 % of control	98 % of control	78 % of control	87 % of control	
O=C(Nc1ccc(F)c(Nc2ccc3c(c2)CCCCC3=O)c1)c1cccc(F)c1 [Compound 109]	113 % of control	99 % of control	90 % of control	97 % of control	94 % of control	95 % of control	90 % of control	94 % of control	91 % of control	88 % of control	113 % of control	105 % of control	95 % of control	100 % of control	4 % of control	17 % of control	88 % of control	96 % of control	78 % of control	88 % of control	inhibition at 1 µM (p38alpha; 1 µM, read-out: inhibition of p38α): ≥ 50%; inhibition at 10 µM (p38alpha; 10 µM, read-out: inhibition of p38α): ≥ 50%
